In patent publication US9732087B2, “Diamino-pyridine, pyrimidine, and pyridazine modulators of the histamine H4 receptor” (JANSSEN PHARMACEUTICA NV, priority 2008, dated 2017):

Biological target: human H4 receptor (Homo sapiens (Human), UniProt Q9H3N8)
Experiment: Binding assay on recombinant human histamine H4 receptor ([3H]histamine competition, SK-N-MC cell membranes)
Settings: membranes harvested with cell harvester; [3H]histamine 10 nM; average of results; read-out: Cell Harvester Ki
Summary of the method: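 Scintillation counting of filter-bound [3H]histamine after rapid harvesting on 0.5% PEI-treated GF/C filters with ice-cold Tris/EDTA washes. Receptor source: 30,000 g membrane pellets of SK-N-MC cells stably or transiently expressing human H4. Values shown as '>' are the top concentration tested.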

| SMILES | Ki |
| --- | --- |
| c1cc(N2C[C@H]3CCN[C@H]3C2)cc(NCC2CCCCC2)n1 [Example 256] | 617 nM |
| N[C@H]1CCN(c2ccnc(NCc3ccccn3)c2)C1 [Example 258, 4-[(3S)-3-Aminopyrrolidin-1-yl]-N-(pyridin-2-ylmethyl)pyridin-2-amine] | > 10000 nM |
| c1ccc(CNc2cc(N3CCNCC3)ccn2)nc1 [Example 260, 4-Piperazin-1-yl-N-(pyridin-2-ylmethyl)pyridin-2-amine] | > 10000 nM |
| c1cc(N2C[C@H]3CCN[C@H]3C2)cc(NCC2CCCC2)n1 [Example 261, N-(Cyclopentylmethyl)-4-[(3aR,6aR)-hexahydropyrrolo[3,4-b]pyrrol-5(1H)-yl]pyridin-2-amine] | 3560 nM |
| c1cc(N2C[C@H]3CCN[C@H]3C2)cc(NC2CCCC2)n1 [Example 262, N-Cyclopentyl-4-[(3aR,6aR)-hexahydropyrrolo[3,4-b]pyrrol-5(1H)-yl]pyridin-2-amine] | 22.1 nM |
| N[C@H]1CCN(c2ccnc(NCc3ccc(F)cc3)c2)C1 [Example 263] | 3090 nM |
| COCCNc1cc(N2CC[C@H](N)C2)ccn1 [Example 264, 4-[(3S)-3-Aminopyrrolidin-1-yl]-N-(2-methoxyethyl)pyridin-2-amine] | > 10000 nM |
| N[C@H]1CCN(c2ccnc(NCc3ccccc3)c2)C1 [Example 267, 4-[(3S)-3-Aminopyrrolidin-1-yl]-N-benzylpyridin-2-amine] | 1530 nM |
| CC1C(Nc2cc(N3CCNCC3)ccn2)C[C@H]2C[C@@H]1C2(C)C (stereo partly drawn) [Example 269, 4-Piperazin-1-yl-N-[(1S,5R)-2,6,6-trimethylbicyclo[3.1.1]hept-3-yl]pyridine-2-amine] | 2100 nM |
| C[C@@H](Nc1cc(N2C[C@H]3CCN[C@H]3C2)ccn1)C1CCCCC1 [Example 271, N-[(1R)-1-Cyclohexylethyl]-4-[(3aR,6aR)-hexahydropyrrolo[3,4-b]pyrrol-5(1H)-yl]pyridin-2-amine] | 189 nM |
| CC1C(Nc2cc(N3CC[C@H](N)C3)ccn2)C[C@H]2C[C@@H]1C2(C)C (stereo partly drawn) [Example 272, 4-[(3S)-3-Aminopyrrolidin-1-yl]-N-[(1S,5R)-2.6.6-trimethylbicyclo[3.1.1]hept-3-yl]pyridin-2-amine] | 2100 nM |
| CC(C)(O)CNc1cc(N2CC[C@H](N)C2)ccn1 [Example 273, 1-({4-[(3S)-3-Aminopyrrolidin-1-yl]pyridin-2-yl}amino)-2-methylpropan-2-ol] | 3170 nM |
| N[C@H]1CCN(c2ccnc(NCCc3ccccc3)c2)C1 [Example 276, 4-[(3S)-3-Aminopyrrolidin-1-yl]-N-(2-phenylethyl)pyridin-2-amine] | 1640 nM |
| c1cc(N2C[C@H]3CCN[C@H]3C2)cc(NC2CCOCC2)n1 [Example 277, 4-[(3aR,6aR)-Hexahydropyrrolo[3,4-b]pyrrol-5(1H)-yl]-N-(tetrahydro-2H-pyran-4-yl)pyridin-2-amine] | 97 nM |
| CC(C)(C)Nc1cc(N2C[C@H]3CCN[C@H]3C2)ccn1 [Example 288, N-tert-Butyl-4-[(3aR,6aR)-hexahydropyrrolo[3,4-b]pyrrol-5(1H)-yl]pyridin-2-amine] | 39.5 nM |
| CC(C)(O)CNc1cc(N2CCNCC2)ccn1 [Example 290, 2-Methyl-1-[(4-piperazin-1-ylpyridin-2-yl)amino]propan-2-ol] | 1480 nM |
| CC(C)(C)CNc1cc(N2C[C@H]3CCN[C@H]3C2)ccn1 [Example 293, N-(2,2-Dimethylpropyl)-4-[(3aR,6aR)-hexahydropyrrolo[3,4-b]pyrrol-5(1H)-yl]pyridin-2-amine] | 60.9 nM |
| CNC1CN(c2ccnc(NCc3ccccn3)c2)C1 [Example 297, 4-[3-(Methylamino)azetidin-1-yl]-N-(pyridin-2-ylmethyl)pyridin-2-amine] | 1560 nM |
| COCCNc1cc(N2CC[C@@H](N)C2)cnn1 [Example 298, 5-[(3R)-3-Aminopyrrolidin-1-yl]-N-(2-methoxyethyl)pyridazin-3-amine] | > 10000 nM |
| CN(CCN)c1cnnc(NCC(C)(C)C)c1 [Example 300, N^5-(2-Aminoethyl)-N^3-(2,2-dimethylpropyl)-N^5-methylpyridazine-3,5-diamine] | 1860 nM |

Now from value to compound:

| Ki | SMILES |
| --- | --- |
| 5.15 nM | CNC1CN(c2ccnc(NC3CCCC3)c2)C1 [Example 259, N-Cyclopentyl-4-[3-(methylamino)azetidin-1-yl]pyridin-2-amine] |
| 1.71 nM | c1cc(N2CCCNCC2)cc(NC2CC3CCC2C3)n1 (stereo not shown) [Example 265, N-Bicyclo[2.2.1]hept-2-yl-4-(1,4-diazepan-1-yl)pyridin-2-amine] |
| 14.5 nM | c1cc(N2C[C@H]3CCN[C@H]3C2)cc(NC2C3CC4CC(C3)CC2C4)n1 (stereo partly drawn) [Example 266, Adamantan-2-yl-[4-(3aR,6aR)-(hexahydro-pyrrolo[3,4-b]pyrrol-5-yl)pyridin-2-yl]-amine] |
| 247 nM | N[C@H]1CCN(c2ccnc(NC3CCCC3)c2)C1 [Example 268, 4-[(3S)-3-Aminopyrrolidin-1-yl]-N-cyclopentylpyridin-2-amine] |
| 3.53 nM | N[C@@H]1CCN(c2ccnc(NC3CC4CCC3C4)c2)C1 (stereo partly drawn) [Example 270, 4-[(3R)-3-Aminopyrrolidin-1-yl]-N-bicyclo[2.2.1]hept-2-ylpyridin-2-amine] |
| 10.6 nM | N[C@@H]1CCN(c2ccnc(NC3CCCCC3)c2)C1 [Example 274, 4-[(3R)-3-Aminopyrrolidin-1-yl]-N-cyclohexylpyridin-2-amine] |
| 8.55 nM | CNC1CN(c2ccnc(NCC3CCCC3)c2)C1 [Example 275, N-(Cyclopentylmethyl)-4-[3-(methylamino)azetidin-1-yl]pyridin-2-amine] |
| 7.29 nM | N[C@@H]1CCN(c2ccnc(NCC3CCCC3)c2)C1 [Example 278, 4-[(3R)-3-Aminopyrrolidin-1-yl]-N-(cyclopentylmethyl)pyridin-2-amine] |
| 276 nM | CC(C)(O)CNc1cc(N2CC[C@@H](N)C2)ccn1 [Example 279, 1-({4-[(3R)-3-Aminopyrrolidin-1-yl]pyridin-2-yl}amino)-2-methylpropan-2-ol] |
| 9.96 nM | CNC1CN(c2ccnc(NC(C)(C)C)c2)C1 [Example 280, N-tert-Butyl-4-[3-(methylamino)azetidin-1-yl]pyridin-2-amine] |
| 21.3 nM | CNC1CN(c2ccnc(NC3CC3)c2)C1 [Example 281, N-Cyclopropyl-4-[3-(methylamino)azetidin-1-yl]pyridin-2-amine] |
| 173 nM | CNC1CN(c2ccnc(NCC(C)(C)O)c2)C1 [Example 282, 2-Methyl-1-({4-[3-(methylamino)azetidin-1-yl]pyridin-2-yl}amino)propan-2-ol] |
| 162 nM | CNC1CN(c2ccnc(NCCCO)c2)C1 [Example 283, 3-({4-[3-(Methylamino)azetidin-1-yl]pyridin-2-yl}amino)propan-1-ol] |
| 42.3 nM | CNC1CN(c2ccnc(NC3C[C@H]4C[C@@H](C3C)C4(C)C)c2)C1 (stereo partly drawn) [Example 284, 4-[3-(Methylamino)azetidin-1-yl]-N-[(1S,5R)-2,6,6-trimethylbicyclo[3.1.1]hept-3-yl]pyridin-2-amine] |
| 141 nM | CNC1CN(c2ccnc(NCc3ccccc3)c2)C1 [Example 285, N-Benzyl-4-[3-(methylamino)azetidin-1-yl]pyridin-2-amine] |
| 88.3 nM | CNC1CN(c2ccnc(NCCOC)c2)C1 [Example 286, N-(2-Methoxyethyl)-4-[3-(methylamino)azetidin-1-yl]pyridin-2-amine] |
| 98.9 nM | CC1C(Nc2cc(N3C[C@H]4CCN[C@H]4C3)ccn2)C[C@H]2C[C@@H]1C2(C)C (stereo partly drawn) [Example 287, 4-[(3aR,6aR)-Hexahydropyrrolo[3,4-b]pyrrol-5(1H)-yl]-N-[(1S,5R)-2,6,6-trimethylbicyclo[3.1.1]hept-3-yl]pyridin-2-amine] |
| 410 nM | COCCNc1cc(N2CC[C@@H](N)C2)ccn1 [Example 289, 4-[(3R)-3-Aminopyrrolidin-1-yl]-N-(2-methoxyethyl)pyridin-2-amine] |
| 239 nM | CC1(C)[C@H]2CC[C@H](CNc3cc(N4C[C@H]5CCN[C@H]5C4)ccn3)[C@@H]1C2 [Example 291, N-{[(1S,2S,5S)-6,6-Dimethylbicyclo[3.1.1]hept-2-yl]methyl}-4-[(3aR,6aR)-hexahydropyrrolo[3.4-b]pyrrol-5(1H)-yl]pyridin-2-amine] |
| 7.01 nM | N[C@@H]1CCN(c2ccnc(NC3CCCC3)c2)C1 [Example 292, 4-[(3R)-3-Aminopyrrolidin-1-yl]-N-cyclopentylpyridin-2-amine] |
| 103 nM | CNC1CN(c2ccnc(NCCc3ccccc3)c2)C1 [Example 294, 4-[3-(Methylamino)azetidin-1-yl]-N-(2-phenylethyl)pyridin-2-amine] |
| 163 nM | CNC1CN(c2ccnc(NCc3ccc(F)cc3)c2)C1 [Example 295, N-(4-Fluorobenzyl)-4-[3-(methylamino)azeidin-1-yl]pyridin-2-amine] |
| 64.2 nM | c1cc(N2C[C@H]3CCN[C@H]3C2)cc(NC23CC4CC(CC(C4)C2)C3)n1 [Example 296, Adamantan-1-yl-[4-(3aR,6aR)-(hexahydro-pyrrolo[3,4-b]pyrrol-5-yl)-pyridin-2-yl]-amine] |
| 146 nM | CNC1CN(c2cnnc(NCCCC(F)(F)F)c2)C1 [Example 299, 5-[3-(Methylamino)azetidin-1-yl]-N-(4,4,4-trifluorobutyl)pyridazin-3-amine] |
| 202 nM | CNC1CN(c2cnnc(NC3C[C@H]4C[C@@H](C3C)C4(C)C)c2)C1 (stereo partly drawn) [Example 301, 5-[3-(Methylamino)azetidin-1-yl]-N-[(1S,5R)-2,6,6-trimethylbicyclo[3.1.1]hept-3-yl]pyridazin-3-amine] |
| 98.1 nM | CN(CCN)c1cnnc(NC2CC3CCC2C3)c1 (stereo not shown) [Example 302, N^5-(2-Amino-ethyl)-N^3-bicyclo[2.2.1]hept-2yl-N^5-methylpyridazine-3,5-diamine] |
